“Also recorded” adds a separate entry of the source. Oligonucleotides are written 5' to 3', each unit as a sugar letter and its base; * is a phosphorothioate linkage, no mark a phosphodiester; rarer units and linkages stand in square brackets, end groups in braces. Plain capitals give the bases only. e = 2'-O-(2-methoxyethyl) (MOE); [5mC] = 5-methylcytosine
Assays:
[1] = test system: IKBKAP pre-mRNA (mt19-21 minigene); assay: Exon 20 inclusion in HEK-293 cells harboring the mt19-21 IKBKAP minigene (RT-PCR); type: cell-based, human; settings: Table 2 (microwalk experiment); HEK-293 with mt19-21 minigene, 0.007 nmol oligonucleotide by electroporation, RT-PCR two days later
Method in brief: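 HEK-293 cells carrying the mt19-21 IKBKAP minigene were electroporated with 0.007 nmol uniform 2′-MOE phosphate-backbone antisense oligonucleotide (15- or 20-mers, 5-methylcytosines). After two days, RT-PCR with α^32P-dCTP-labeled amplicons, native PAGE and phosphorimaging gave exon 20 inclusion, normalized for G+C content.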

[2] = test system: IKBKAP mRNA in GM04899 fibroblasts; assay: Exon 20 inclusion in FD patient skin fibroblast line GM04899 (RT-PCR); type: cell-based, human; settings: for % inclusion of exon 20: Lipofectamine 2000, two days, relative to IMR90 cells (100%)
Procedure: To investigate the effect of ISIS 421992 on patient-derived fibroblasts, the patient skin fibroblast line GM04899 (Coriell Cell Repository) was utilized. The cell line was derived from an individual homozygous for the major FD mutation.
GM04899 was cultured in minimal essential medium (Invitrogen) supplemented with non-essential amino acids (Invitrogen) and 20% (v/v) fetal bovine serum. The cells were grown to 40-50% confluence in 10-cm dishes. Cells were transfected with 2 nM, 5 nM, 25 nM, or 125 nM concentrations of ISIS 421992 using 12 μL Lipofectamine 2000 transfection reagent (Invitrogen). Two days later, cDNA synthesized from total RNA extracted from HEK-293 cells was amplified using the forward primer pCDNAF and reverse primer sequence IKAP21R4 to assay the splicing pattern of expressed RNAs by RT-PCR. To calculate exon 20 inclusion levels, the PCR amplicons were labeled with α^32P-dCTP. The PCR products were then separated by native PAGE, followed by phosphorimage analysis. The band intensities were quantified and values were normalized for the G+C content according to the DNA sequence. Multiple lanes for each condition represent independent experiments.
A batch of cells was treated with solvent (NaOH) only of the kinetin solution as a control. RNA from IMR90, a wild-type normal diploid lung fibroblast cell line was used as positive control. The results are expressed as percent inclusion of exon 20 compared to the exon 20 inclusion (100%) of IKBKAP mRNA in IMR90 cells.

Substance: ISIS 421992: uniform 2′-MOE 20-mer, phosphate backbone; GTCGCAAACAGTACAATGGC, SEQ ID NO 61, intron 20 (eGeTe[5mC]eGe[5mC]eAeAeAe[5mC]eAeGeTeAe[5mC]eAeAeTeGeGe[5mC])
- % inclusion (exon 20) [1]: 96%
- % inclusion of exon 20 ([2]; GM04899, 2 nM): 79%
- % inclusion of exon 20 ([2]; GM04899, 5 nM): 95%
- % inclusion of exon 20 ([2]; GM04899, 25 nM): 96%
- % inclusion of exon 20 ([2]; GM04899, 125 nM): 97%
- effect on the splicing defect / full-length mRNA levels, in words ([2]; GM04899 fibroblasts): almost completely suppressed the splicing defect; also recorded: as effective as treatment with kinetin for 3 days in restoring full-length mRNA levels
